Results from patent publication US5658925A, “Aminobenzoic acid derivatives” (Eisai Co., Ltd., priority 1993, dated 1997).
pEC50: −log10 of the molar value. Structures can show the parent of a compound that is named as a salt. Where two headings read alike, the source gives them in different places.

Key:
serotonin 3 = target: T1, serotonin 3 (Cavia porcellus, UniProt O70212); assay: Antagonism against 2-methyl-serotonin-induced contraction of ileum (serotonin 3 antagonism); assay type: cell-based, guinea pig (Hartley male); conditions: vs 2-methylserotonin, 30 minutes with test compound, 37° C.
T1 construct: from tissue; host or cells: nonterminal ileum of Hartley male guinea pig
T1 sequence (O70212 20-490): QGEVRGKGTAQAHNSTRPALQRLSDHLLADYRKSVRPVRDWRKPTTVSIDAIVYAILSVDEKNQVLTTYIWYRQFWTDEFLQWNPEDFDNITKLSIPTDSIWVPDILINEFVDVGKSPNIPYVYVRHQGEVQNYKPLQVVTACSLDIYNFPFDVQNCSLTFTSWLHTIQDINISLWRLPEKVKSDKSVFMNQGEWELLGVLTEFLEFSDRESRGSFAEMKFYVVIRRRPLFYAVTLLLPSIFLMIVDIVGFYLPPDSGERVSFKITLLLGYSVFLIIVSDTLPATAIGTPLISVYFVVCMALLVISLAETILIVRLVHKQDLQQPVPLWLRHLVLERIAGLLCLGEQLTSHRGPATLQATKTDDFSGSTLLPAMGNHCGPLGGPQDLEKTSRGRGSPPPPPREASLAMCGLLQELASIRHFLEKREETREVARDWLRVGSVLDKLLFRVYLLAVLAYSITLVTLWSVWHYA
Procedure: [Experimental Example 1] Antagonism against 2-methyl-serotonin-induced contraction of ileum (serotonin 3 antagonism)
This experiment was made according to the method of Sanger et al. [see Eur. J. Pharmacol., 159, 113-124 (1989)]. The nonterminal ileum of a Hartley male guinea pig was suspended in the Krebs solution (37° C.) by applying a load of 0.5 g, and a gaseous mixture comprising 95% of oxygen and 5% of carbon dioxide was passed through the solution. The contraction of the ileum was isometrically determined. After allowing the ileum to stand for one or more hours for stabilization, a solution of a test compound was added to the solution, and after 30 minutes, 2-methylserotonin was noncumulatively added. The pA2 value was calculated from the rightward shift of the dose-response curve of the 2-methylserotonin-induced contraction caused by the test compound according to the method of Rossum et al. [see Arch. Int. Pharmacodyn. 143, 299(1963)]. BRL 24924 (Renzapride) was used as a control in this experiment.
The structural formula of BRL 24924 is as follows: [drawing 19]

[1] = system: cisplatin-induced vomiting; assay: Activity against cisplatin-induced vomiting of beagle; assay type: in vivo; conditions: through the vein of forefoot, one hour after 3 mg/kg cisplatin, 5-hour period
Procedure: [Experimental Example 2] Activity against cisplatin-induced vomiting of beagle
Beagles weighing 7 to 12 kg were used. 3 mg/kg of cisplatin (a product of Sigma) (1 ml/kg of physiological saline) was administered to each beagle through the vein of one of its forefeet. One hour after the administration, physiological saline (0.2 ml/kg) was administered to a control group of beagles and a solution of a test compound in physiological saline was administered to a test group of beagles, each through the vein of the other forefoot. The frequency of vomiting observed over a 5-hour period from the administration of cisplatin was recorded and the inhibitory ratio of the test compound was calculated according to the following formula.

serotonin 4 = target: T2, serotonin 4 (Rattus norvegicus, UniProt Q62758); assay: Effect of relaxing the contraction of muscular layer of esophageal mucosa of rat by stimulation with carbachol (activity of serotonin 4 as agonist); assay type: cell-based
T2 construct: The esophagus of a rat was extirpated and freed from the outer tunica propria to obtain the muscular layer of mucosa; from tissue; host or cells: muscular layer of mucosa of rat esophagus
T2 sequence (Q62758 whole entry): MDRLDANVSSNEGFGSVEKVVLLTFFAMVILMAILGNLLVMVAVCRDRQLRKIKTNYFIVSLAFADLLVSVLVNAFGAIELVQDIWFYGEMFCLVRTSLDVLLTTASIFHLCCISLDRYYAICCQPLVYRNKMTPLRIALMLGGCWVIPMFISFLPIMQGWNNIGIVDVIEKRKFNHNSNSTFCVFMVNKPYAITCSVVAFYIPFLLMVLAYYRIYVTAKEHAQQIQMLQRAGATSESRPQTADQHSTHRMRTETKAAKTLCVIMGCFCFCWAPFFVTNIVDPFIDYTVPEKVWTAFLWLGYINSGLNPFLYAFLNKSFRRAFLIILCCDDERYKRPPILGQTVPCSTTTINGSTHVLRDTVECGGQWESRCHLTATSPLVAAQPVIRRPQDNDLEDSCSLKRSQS
Procedure: This experiment was made according to the method of Baxter et al. [see Naunyn-Schmiedeberg's Arch. […] The esophagus of a rat was extirpated and freed from the outer tunica propria to obtain the muscular layer of mucosa. […] A load of 0.5 g was applied to each sample and the reaction was recorded isometrically. 1 μM of carbachol was added to each sample to cause contraction, followed by the cumulative addition thereto of a solution of a test compound. The effect of the test compound was determined as the ratio (%) of relaxation based on the maximum contraction caused by carbachol.

[2] = system: gastric emptying function; assay: Activity for increasing gastric emptying function; assay type: in vivo, rat (Fischer male); conditions: oral, one hour before test food, *: minimum effective dose
Procedure: [Experimental Example 3] Activity for increasing gastric emptying function
This experiment was made according to the method of Decktor et al. [see Eur. J. Pharmacol., 147, 313-316 (1988)]. Fischer male rats (weight: 160 to 180 g) were fasted for 18 hours before 3 ml of a test food comprising methylcellulose, beef bouillon, casein, sugar and corn starch was orally administered to each rat. One hour after the administration, the stomach was extirpated from each rat. The gastric emptying ratio was calculated from the weight of the test food remaining in the stomach. The percentage increment of the gastric emptying function was determined by comparing the gastric emptying ratio of a medicated rat with that of a control rat. Each test compound (5 ml/kg) was orally administered one hour before the administration of the test food. BRL 24924 was used as a control in this experiment.

[3] = guinea pig nonterminal ileum, read-out: pA2 (converted)
[4] = 50% relaxation of maximum contraction caused by 1 μM carbachol, cumulative addition, 37° C., read-out: Effect of relaxing the muscular layer of esophageal mucosa of rat EC50
[5] = pA2, guinea pig nonterminal ileum

Row | SMILES | pEC50 (serotonin 4; [4]) | Percentage increment of gastric emptying function (%) ([2]; 0.03 mg/kg) | Percentage increment of gastric emptying function (%) ([2]; 0.1 mg/kg) | Percentage increment of gastric emptying function (%) ([2]; 0.3 mg/kg) | also measured
1 | CC#C[C@H](C)Oc1cc(N)c(Cl)cc1C(=O)NC1CCN2CCOC1C2 (single isomer, unassigned) [20 fraction 1] | 7.22 | 8.9 | 22.9 | 11.5 | Kb (serotonin 3; [3]): 63.1 nM; Inhibitory ratio against cisplatin-induced vomiting (%) ([1]; 0.1 mg/kg): 22%; Percentage increment of gastric emptying function (%) ([2]; 0.01 mg/kg): 3.9%
2 | CC#C[C@H](C)Oc1cc(N)c(Cl)cc1C(=O)NC1CCN2CCOC1C2 (single isomer, unassigned) [20 fraction 2] | 7.48 | 14.0 | 23.3 | 21.8 | Kb (serotonin 3; [3]): 12.6 nM; Inhibitory ratio against cisplatin-induced vomiting (%) ([1]; 0.03 mg/kg): 14%; Inhibitory ratio against cisplatin-induced vomiting (%) ([1]; 0.1 mg/kg): 24%
3 | CC#C[C@H](C)Oc1cc(N)c(Cl)cc1C(=O)NC1CC2CC(OC)C(C1)N2C (single isomer, unassigned) [28 fraction 1] | < 5.00 | – | – | – | –
4 | CC#C[C@H](C)Oc1cc(N)c(Cl)cc1C(=O)NC1CC2CC(OC)C(C1)N2C (single isomer, unassigned) [28 fraction 2] | < 5.00 | – | – | – | –
5 | CC#C[C@H](C)Oc1cc(N)c(Cl)cc1C(=O)NC1CCN2CCCC1C2 (single isomer, unassigned) [31 fraction 1] | 7.36 | 0.8 | 0.8 | 14.1 | Kb (serotonin 3; [3]): 63.1 nM
6 | CC#C[C@H](C)Oc1cc(N)c(Cl)cc1C(=O)NC1CCN2CCCC1C2 (single isomer, unassigned) [31 fraction 2] | 6.72 | 24.6 | 25.8 | 33.2 | Kb (serotonin 3; [3]): 5.01 nM; Inhibitory ratio against cisplatin-induced vomiting (%) ([1]; 0.03 mg/kg): 63%; Inhibitory ratio against cisplatin-induced vomiting (%) ([1]; 0.1 mg/kg): 92%; Percentage increment of gastric emptying function (%) ([2]; 0.01 mg/kg): 4.5%
7 | CC#C[C@H](C)Oc1cc(N)c(Cl)cc1C(=O)NC1CCC2CCC1N2C (single isomer, unassigned) [53 fraction 2-1] | 6.52 | 22.2 | 26.7 | 29.0 | Kb (serotonin 3; [5]): 2.51 nM; Percentage increment of gastric emptying function (%) ([2]; 0.01 mg/kg): 14.4%
8 | CC#C[C@H](C)Oc1cc(N)c(Cl)cc1C(=O)NC1CCC2CCC1N2C (single isomer, unassigned) [53 fraction 2-2] | 6.74 | 6.6 | 21.3 | 28.8 | Kb (serotonin 3; [5]): 12.6 nM
9 | CC#C[C@H](C)Oc1cc(N)c(Cl)cc1C(=O)NC1CCC2CCC1N2C (single isomer, unassigned) [53 fraction 2] | 6.51 | – | 14.4 | 16.1 | –
10 | COc1cc(N)c(Cl)cc1C(=O)NC1CCN2CCCC1C2 (centres unmarked) [BRL 24924, Renzapride, reference compound] | 6.52 | – | 1.9 | 6.5 | Kb (serotonin 3; [3]): 251 nM; Inhibitory ratio against cisplatin-induced vomiting (%) ([1]; 0.03 mg/kg): 19%; Inhibitory ratio against cisplatin-induced vomiting (%) ([1]; 0.1 mg/kg): 61%; Percentage increment of gastric emptying function (%) ([2]; 1 mg/kg): 18.5%
11 | CC#C[C@H](C)Oc1cc(N)c(Cl)cc1C(=O)NC1CC2COCC(C1)N2C (some centres unmarked) [Example 2] | – | 19.7 | 19.8 | 30.6 | Inhibitory ratio against cisplatin-induced vomiting (%) ([1]; 0.03 mg/kg): 14%; Inhibitory ratio against cisplatin-induced vomiting (%) ([1]; 0.1 mg/kg): 53%; pEC50 (serotonin 4): 7.09; Percentage increment of gastric emptying function (%) ([2]; 0.01 mg/kg): 20.5%
12 | CC#C[C@H](C)Oc1cc(N)c(Cl)cc1C(=O)NC1CC2CCCC(C1)N2C (some centres unmarked) [Example 4, hydrochloride] | 5.89 | – | – | – | –
13 | CC#C[C@H](C)Oc1cc(N)c(Cl)cc1C(=O)NC1CCN2CCCC1C2 (stereo partly drawn) [Example 6, N-(1-Azabicyclo[3.3.1]non-4α-yl)-4-amino-5-chloro-2-((S-1-methyl-2-butynyl/oxybenzamide hydrochloride] | 6.96 | – | – | – | Kb (serotonin 3; [3]): 20 nM; Inhibitory ratio against cisplatin-induced vomiting (%) ([1]; 0.1 mg/kg): 77%
14 | CC#C[C@H](C)Oc1cc(N)c(Cl)cc1C(=O)NC1CCN2CCOC1C2 (stereo partly drawn) [Example 15, N-(4-Oxa-1-azabicyclo[3.3.1]non-6α-yl)-4-amino-5-chloro-2-((S)-1-methyl-2-butynyl/oxybenzamide hydrochloride] | 7.46 | – | 24.6 | 30.6 | –
15 | CC#C[C@H](C)Oc1cc(N)c(Cl)cc1C(=O)NC1CC2CN(C)CC(C1)N2C (stereo partly drawn) [Example 19, (S)-N-(3,9-Dimethyl-3,9-diazabicyclo[3.3.1]non-7α-yl)-4-amino-5-chloro-2-(1-methyl-2-butynyl/oxybenzamidedihydrochloride] | < 5.00 | – | – | – | –
16 | CC#C[C@H](C)Oc1cc(N)c(Cl)cc1C(=O)NC1CC2CCC(C1)N2 (some centres unmarked) [Example 29] | < 5.00 | – | – | – | –
17 | CC#C[C@H](C)Oc1cc(N)c(Cl)cc1C(=O)NC1C2CCC1CN(C)C2 (stereo partly drawn) [Example 35, (S)-N-(3-Methyl-3-azabicyclo[3.2.1]oct-8α-yl) -4-amino-5-chloro-2-(1-methyl-2-butynyl)oxybenzamide hydrochloride] | 5.70 | – | – | – | –
18 | CC#CC(CCOCC)Oc1cc(N)c(Cl)cc1C(=O)NC1CC2CCC(C1)N2C (stereo not drawn) [Example 42, N-(8Methyl-8-azabicylo[3.2.1]oct-3α-yl)-4-amino-5-chloro-2-(1-ethoxyethyl-2-butynyl]oxybenzamide hydrochloride] | 5.21 | – | – | – | –
19 | CC#C[C@H](C)Oc1cc(N)c(Cl)cc1C(=O)NC1C2CN(C)CC1CN(C)C2 (stereo partly drawn) [Example 44, (S)-N-(3,7-Dimethyl-3,7-diazabicyclo[3.3.1]non-9-yl)-4-amino-5-chloro-2-(1-methyl-2-butynyl)oxybenzamide hydrochloride] | – | – | – | – | pEC50 (serotonin 4): 6.96
20 | CC#C[C@H](C)Oc1cc(N)c(Cl)cc1C(=O)NC1CC2CC(OCC)CC(C1)N2C (stereo partly drawn) [Example 50, (S)-N-(3-Ethoxy-9-methyl-9-azabicyclo[3.3.1]-1non-9α- or 9β-yl)-4-amino-5-chloro-2-(1-methyl-2-butynyl)oxybenzamide hydrochloride] | < 5.00 | – | – | – | –
21 | CC#C[C@H](C)Oc1cc(N)c(Cl)cc1C(=O)NC1C2CC3CC1CN(C3)C2 (stereo partly drawn) [Example 55, (S)-N-(1-Azatricyclo[3.3.1.1^3,7]dec-10-yl)-4-amino-5-chloro-(1-methyl-2-butynyl)oxybenzamide hydrochloride] | 6.19 | – | – | – | –
